Measurements: ChEMBL document CHEMBL4130390, “Crystal structure of Porphyromonas gingivalis dipeptidyl peptidase 4 and structure-activity relationships based on inhibitor profiling” (Eur J Med Chem, 2017)

Columns and labels:
Dipeptidyl peptidase IV = Dipeptidyl peptidase IV (Porphyromonas gingivalis, UniProt O31048); test: Inhibition of Porphyromonas gingivalis N-terminal His-tagged DPP4 expressed in Escherichia coli using Gly-Pro-p-nitroanilide as substrate
[1] = target: Dipeptidyl peptidase IV (Porphyromonas gingivalis) (UniProt O31048); test: Inhibition of Porphyromonas gingivalis N-terminal His-tagged DPP4 expressed in Escherichia coli at 10 uM using Gly-Pro-p-nitroanilide as substrate relative to control
[2] = target: Dipeptidyl peptidase IV (Porphyromonas gingivalis) (UniProt O31048); test: Inhibition of Porphyromonas gingivalis N-terminal His-tagged DPP4 expressed in Escherichia coli at 100 uM using Gly-Pro-p-nitroanilide as substrate relative to control

Sequence of Dipeptidyl peptidase IV (O31048 20-723 limits assumed): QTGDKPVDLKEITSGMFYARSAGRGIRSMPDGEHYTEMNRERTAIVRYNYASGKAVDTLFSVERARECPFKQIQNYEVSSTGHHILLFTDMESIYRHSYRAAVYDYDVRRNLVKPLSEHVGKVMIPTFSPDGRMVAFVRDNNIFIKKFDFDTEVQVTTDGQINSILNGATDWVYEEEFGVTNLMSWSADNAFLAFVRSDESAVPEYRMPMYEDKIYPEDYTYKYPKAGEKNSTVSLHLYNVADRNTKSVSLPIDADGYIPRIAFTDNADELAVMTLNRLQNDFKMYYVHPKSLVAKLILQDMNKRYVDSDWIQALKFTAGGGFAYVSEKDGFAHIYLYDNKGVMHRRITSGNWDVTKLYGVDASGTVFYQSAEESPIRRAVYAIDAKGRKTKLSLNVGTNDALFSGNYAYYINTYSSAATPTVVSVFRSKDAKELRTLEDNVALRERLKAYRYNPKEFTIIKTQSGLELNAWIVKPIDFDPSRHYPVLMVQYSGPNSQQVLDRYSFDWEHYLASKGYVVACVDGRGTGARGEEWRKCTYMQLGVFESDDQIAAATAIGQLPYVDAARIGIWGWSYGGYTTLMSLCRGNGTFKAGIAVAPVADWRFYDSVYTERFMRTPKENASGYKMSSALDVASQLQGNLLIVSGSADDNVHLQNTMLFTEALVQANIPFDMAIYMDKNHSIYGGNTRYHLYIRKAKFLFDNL
Sequence of Dipeptidyl peptidase IV (Porphyromonas gingivalis) (O31048 20-723 limits assumed): as above

| IC50 (Dipeptidyl peptidase IV; read-out: IC50) | inhibition [1] | inhibition [2] | IC50 (Dipeptidyl peptidase IV) | Compound |
| --- | --- | --- | --- | --- |
| 19 µM | > 50% | < 50% | – | CC(C)C(N)C(=O)N1CCCC1 (stereo unspecified) |
| – | > 50% | < 50% | IC50 10-100 uM | CCC(C)C(N)C(=O)N1CCSC1 (stereo unspecified) |
| 29 µM | > 50% | – | – | CC(C)[C@H](N)C(=O)N1CCCC1 |
| – | > 50% | < 50% | IC50 10-100 uM | CCC(C)C(N)C(=O)N1CCC(Cl)C1 (stereo unspecified) |
| – | > 50% | < 50% | IC50 10-100 uM | CCC(C)C(N)C(=O)N1Cc2ccc(F)cc2C1 (stereo unspecified) |
| – | > 50% | < 50% | IC50 10-100 uM | CC[C@H](C)[C@H](N)C(=O)N1CCCC1 |
| – | > 50% | < 50% | IC50 10-100 uM | C=C1CCN(C(=O)C(N)C(C)CC)C1 (stereo unspecified) |
| – | > 50% | < 50% | IC50 10-100 uM | CCC(C)C(N)C(=O)N1CCC(C)C1 (stereo unspecified) |
| – | > 50% | < 50% | IC50 10-100 uM | CCC(C)C(N)C(=O)N1CC=CCC1 (stereo unspecified) |
| – | > 50% | < 50% | IC50 10-100 uM | CC[C@@H](C)[C@@H](N)C(=O)N1CCC(C#N)C1 (stereo partly specified) |
| 19 µM | > 50% | – | – | CC[C@H](C)[C@H](N)C(=O)N1CCSC1 |
| – | > 50% | – | IC50 10-100 uM | CC[C@@H](C)[C@H](N)C(=O)N1Cc2ccccc2C1 |

More lines, now with the values behind:

| Compound | IC50 (Dipeptidyl peptidase IV; read-out: IC50) | inhibition [1] | inhibition [2] | IC50 (Dipeptidyl peptidase IV) |
| --- | --- | --- | --- | --- |
| NCCNC(=O)CCC(N)Cc1ccccc1 (stereo unspecified) | – | > 50% | < 50% | IC50 10-100 uM |
| C=C1CC(C)N(C(=O)C(N)CCC(=O)N2CCN(C(c3ccc(F)cc3)c3ccc(F)cc3)CC2)C1 (stereo unspecified) | – | > 50% | < 50% | IC50 10-100 uM |
| CS(=O)(=O)NCCCCC(N)C(=O)N1CCCC1 (stereo unspecified) | – | > 50% | < 50% | IC50 10-100 uM |
| N#CC1CC(N=[N+]=[N-])CN1C(=O)C(N)CCCCN(Cc1ccc2ccccc2c1)Cc1ccc2ccccc2c1 (stereo unspecified) | 0.58 µM | > 50% | < 50% | – |
| NC(CC(=O)N1CCN(C(c2ccccc2)c2ccc(Cl)cc2)CC1)C(=O)N1Cc2ccccc2C1 (stereo unspecified) | – | > 50% | < 50% | IC50 10-100 uM |
| NC(CCCNC(=NC(=O)OCc1ccccc1)NC(=O)OCc1ccccc1)C(=O)N1CCCC1 (stereo unspecified) | – | > 50% | < 50% | IC50 10-100 uM |
| NC(C(=O)N1Cc2ccccc2C1)C1CCCCC1 (stereo unspecified) | – | > 50% | < 50% | IC50 10-100 uM |
| NC(CCCCNCc1ccc2ccccc2c1)C(=O)N1Cc2ccccc2C1 (stereo unspecified) | – | > 50% | < 50% | IC50 10-100 uM |
| NCCCCC(N)C(=O)N1Cc2ccccc2C1 (stereo unspecified) | – | > 50% | < 50% | IC50 10-100 uM |
| NC(CCCCNC(=O)Oc1ccccc1)C(=O)N1CCCC1 (stereo unspecified) | – | > 50% | < 50% | IC50 10-100 uM |
| CC1C[C@@H](C#N)N(C(=O)[C@@H](N)CC(=O)N2CCN(C(c3ccc(F)cc3)c3ccc(F)cc3)CC2)C1 (stereo partly specified) | – | > 50% | < 50% | IC50 10-100 uM |
| NC(CCCCNC(=O)c1ccccc1)C(=O)N1CCCC1 (stereo unspecified) | – | > 50% | < 50% | IC50 10-100 uM |
| CC(=O)NCCCCC(N)C(=O)N1CCCC1 (stereo unspecified) | – | > 50% | < 50% | IC50 10-100 uM |
| O=C(C1CC(NCc2ccc3ccccc3c2)CN1)N1Cc2ccccc2C1 (stereo unspecified) | – | > 50% | < 50% | IC50 10-100 uM |
| CC[C@@H](C)[C@H](N)C(=O)N1C[C@H](N=[N+]=[N-])C[C@H]1C#N | – | > 50% | < 50% | IC50 10-100 uM |
| N#CC1CC(N=[N+]=[N-])CN1C(=O)C1CC(NCc2ccc3ccccc3c2)CN1 (stereo unspecified) | – | > 50% | < 50% | IC50 10-100 uM |
